The target of assay [1] is T1, Phenylalanine-4-hydroxylase (Homo sapiens, UniProt P00439).
T1 sequence (P00439 whole entry): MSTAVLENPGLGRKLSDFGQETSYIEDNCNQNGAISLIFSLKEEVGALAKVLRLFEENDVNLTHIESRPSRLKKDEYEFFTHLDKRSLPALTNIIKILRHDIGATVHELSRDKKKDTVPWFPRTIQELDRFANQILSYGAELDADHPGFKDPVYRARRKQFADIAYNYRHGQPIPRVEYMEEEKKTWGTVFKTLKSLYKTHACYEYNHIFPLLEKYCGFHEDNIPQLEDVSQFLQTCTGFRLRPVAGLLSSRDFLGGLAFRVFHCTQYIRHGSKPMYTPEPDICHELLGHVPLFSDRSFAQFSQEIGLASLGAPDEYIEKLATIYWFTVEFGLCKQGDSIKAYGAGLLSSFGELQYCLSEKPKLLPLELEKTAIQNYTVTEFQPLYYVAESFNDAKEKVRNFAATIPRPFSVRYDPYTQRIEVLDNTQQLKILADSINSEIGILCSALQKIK
The experiment in a line: Inhibitory concentration against human phenylalanine hydroxylase.

In assay [2] the target is T1, Phenylalanine-4-hydroxylase. The experiment in a line: Binding affinity for human phenylalanine hydroxylase.

The structures appear in SMILES notation.

On to `CC(O)C(O)C1CNc2c(nc(N)[nH]c2=O)N1` (configuration not stated), for which, in assay [1], half-maximal inhibition (IC50) required 1 µM. The compound also displayed a Ki in assay [2] of 7 µM.

One may read the IC50 as the concentration that gives 50% inhibition. Read a high IC50 as a need for much substance. As a reminder, the Ki is a measure of affinity in units of concentration, obtained from inhibition or displacement. Lower therefore signals a stronger hold on the target.

Values taken from ChEMBL document CHEMBL1138848, “Tetrahydrobiopterin binding to aromatic amino acid hydroxylases. Ligand recognition and specificity” (J Med Chem, 2004).
